ChEMBL document CHEMBL1144086, “Tryptamine derived amides and acetogenins from the seeds of Rollinia mucosa” (J Nat Prod, 1999)
Values after ≈ are worked out from the molar mass of the structure shown.

What was measured:
[1] = system: PC-3; test: Cytotoxicity against human PC-3 cells; assay type: functional; conditions: read-out: ED50 (the source's name)
[2] = (§1) Toxicity in Artemia salina; assay type: organism-based; conditions: in vivo
[3] = system: A549; test: Cytotoxicity against human A549 cells; assay type: functional; conditions: read-out: ED50 (the source's name)
[4] = system: MIA PaCa-2; test: Cytotoxicity against human PaCa2 cells; assay type: functional; conditions: read-out: ED50 (the source's name)
[5] = Cytotoxicity against human […] cells; assay type: functional; conditions: read-out: ED50 (the source's name)
[6] = system: MCF7; test: Cytotoxicity against human MCF7 cells; assay type: functional; conditions: read-out: ED50 (the source's name)
[7] = system: HT-29; test: Cytotoxicity against human HT-29 cells; assay type: functional; conditions: read-out: ED50 (the source's name)
[8] = system: Artemia salina; test: as §1; assay type: organism-based; conditions: in vivo

SMILES	EC50 [1]	LC50 [2]	EC50 [3]	EC50 [4]	EC50 [5]	EC50 [6]	EC50 [7]	LC50 [8]
CCCCCCCCCCCCCCCCCCCCCC(=O)NCCc1c[nH]c2ccccc12	> 10 µg/mL	> 500 µg/mL	> 10 µg/mL	> 10 µg/mL	> 10 µg/mL	> 10 µg/mL	> 10 µg/mL	
CCCCCCCCCCCCCCCCCCCCCCCCCC(=O)NCCc1c[nH]c2ccccc12	> 10 µg/mL	> 500 µg/mL	> 10 µg/mL	> 10 µg/mL	> 10 µg/mL	> 10 µg/mL	> 10 µg/mL	
CCCCCCCCCCCCCCCCCCCCCCC(=O)NCCc1c[nH]c2ccccc12	> 10 µg/mL	> 500 µg/mL	> 10 µg/mL	> 10 µg/mL	> 10 µg/mL	> 10 µg/mL	> 10 µg/mL	
CCCCCCCCCCCCCCCC(=O)NCCc1c[nH]c2ccccc12	> 10 µg/mL	> 500 µg/mL	> 10 µg/mL	> 10 µg/mL	> 10 µg/mL	> 10 µg/mL	> 10 µg/mL	
CCCCCCCCCCCCCCCCCC(=O)NCCc1c[nH]c2ccccc12	> 10 µg/mL	> 500 µg/mL	> 10 µg/mL	> 10 µg/mL	> 10 µg/mL	> 10 µg/mL	> 10 µg/mL	
CCCCCCCCCCCCCCCCCCCC(=O)NCCc1c[nH]c2ccccc12	> 10 µg/mL	> 500 µg/mL	> 10 µg/mL	> 10 µg/mL	> 10 µg/mL	> 10 µg/mL	> 10 µg/mL	
CCCCCCCCCCCCCCCCCCCCCCCC(=O)NCCc1c[nH]c2ccccc12	> 10 µg/mL	> 500 µg/mL	> 10 µg/mL	> 10 µg/mL	> 10 µg/mL	> 10 µg/mL	> 10 µg/mL	
CCCCCCCCCCCCCCCCCCCCCCCCC(=O)NCCc1c[nH]c2ccccc12	> 10 µg/mL	> 500 µg/mL	> 10 µg/mL	> 10 µg/mL	> 10 µg/mL	> 10 µg/mL	> 10 µg/mL	
CCCCCCCCCC[C@H](O)[C@H]1CC[C@H]([C@H]2CC[C@H]([C@H](O)CCCCCCCCCCCCC3=C[C@H](C)OC3=O)O2)O1 [BULLANIN]	< 0.001 µg/mL		0.47 µg/mL (≈ 0.774 µM)	1.92 µg/mL (≈ 3.16 µM)	< 0.001 µg/mL	1.35 µg/mL (≈ 2.22 µM)	1.69 µg/mL (≈ 2.78 µM)	1.6 ×10⁻² ug/ml
COc1cccc2c1C(=O)c1c(O)c3c(c(O)c1C2=O)C[C@@](O)(C(=O)CO)C[C@@H]3O[C@H]1C[C@H](N)[C@H](O)[C@H](C)O1 [DOXORUBICIN]	0.0056 µg/mL (≈ 0.0103 µM)		0.89 µg/mL (≈ 1.64 µM)	0.0011 µg/mL (≈ 0.00202 µM)	0.0083 µg/mL (≈ 0.0153 µM)	3.6 µg/mL (≈ 6.62 µM)	3.7 µg/mL (≈ 6.81 µM)	
CCCCCCCCCC[C@H](O)[C@@H]1CC[C@H]([C@H]2CC[C@@H]([C@H](O)CCCCCCCCCCCCC3=C[C@H](C)OC3=O)O2)O1 [MEMBRANACIN]	< 0.001 µg/mL		0.4 µg/mL (≈ 0.659 µM)	2.1 µg/mL (≈ 3.46 µM)	< 0.001 µg/mL	2.18 µg/mL (≈ 3.59 µM)	3.04 µg/mL (≈ 5.01 µM)	5 ×10⁻² ug/ml
